Test [1] deals with Cyclin-dependent kinase 2 (Homo sapiens, UniProt P24941). Briefly: Inhibitory activity against Cyclin-dependent kinase 2.
Test [2] concerns the target Vascular endothelial growth factor receptor 2 (Homo sapiens, UniProt P35968). Put plainly: Inhibitory activity was tested against FLK kinase.
For test [3], the target named is Platelet-derived growth factor receptor beta (Homo sapiens, UniProt P09619). Briefly: Inhibitory activity was tested against Platelet-derived growth factor receptor beta.
Sequence of Platelet-derived growth factor receptor beta (P09619 whole entry): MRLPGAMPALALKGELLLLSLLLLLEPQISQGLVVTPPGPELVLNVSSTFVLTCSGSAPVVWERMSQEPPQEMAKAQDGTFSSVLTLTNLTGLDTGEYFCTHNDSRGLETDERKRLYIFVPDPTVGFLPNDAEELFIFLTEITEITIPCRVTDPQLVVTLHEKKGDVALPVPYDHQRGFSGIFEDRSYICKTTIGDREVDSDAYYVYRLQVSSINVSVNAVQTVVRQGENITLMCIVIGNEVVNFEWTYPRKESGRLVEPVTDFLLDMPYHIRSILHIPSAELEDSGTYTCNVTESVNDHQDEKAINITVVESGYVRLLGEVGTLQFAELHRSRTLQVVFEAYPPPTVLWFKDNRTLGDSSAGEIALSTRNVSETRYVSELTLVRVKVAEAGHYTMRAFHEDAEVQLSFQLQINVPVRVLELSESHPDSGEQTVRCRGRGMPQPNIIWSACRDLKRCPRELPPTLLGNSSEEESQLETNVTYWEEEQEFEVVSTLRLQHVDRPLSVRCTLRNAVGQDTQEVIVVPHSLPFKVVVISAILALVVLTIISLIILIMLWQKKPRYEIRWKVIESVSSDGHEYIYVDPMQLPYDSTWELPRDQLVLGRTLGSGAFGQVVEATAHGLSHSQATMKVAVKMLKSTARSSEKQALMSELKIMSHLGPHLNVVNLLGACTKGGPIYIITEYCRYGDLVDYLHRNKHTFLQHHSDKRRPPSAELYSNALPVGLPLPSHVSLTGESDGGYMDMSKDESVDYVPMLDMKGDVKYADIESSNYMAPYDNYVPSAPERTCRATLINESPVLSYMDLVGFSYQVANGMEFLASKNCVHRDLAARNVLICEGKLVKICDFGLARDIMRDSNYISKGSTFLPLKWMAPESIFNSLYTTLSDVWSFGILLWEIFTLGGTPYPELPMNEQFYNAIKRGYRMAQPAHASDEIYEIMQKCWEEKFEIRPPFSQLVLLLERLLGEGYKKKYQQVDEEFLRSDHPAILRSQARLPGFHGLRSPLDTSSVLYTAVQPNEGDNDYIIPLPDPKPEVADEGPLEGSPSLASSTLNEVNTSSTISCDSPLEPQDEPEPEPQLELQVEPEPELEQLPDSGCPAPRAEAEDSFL
The target of test [4] is Proto-oncogene tyrosine-protein kinase Src (Homo sapiens, UniProt P12931). Briefly: Inhibitory activity was tested against Src protein tyrosine kinase.
Sequence of Proto-oncogene tyrosine-protein kinase Src (P12931 2-536 limits assumed): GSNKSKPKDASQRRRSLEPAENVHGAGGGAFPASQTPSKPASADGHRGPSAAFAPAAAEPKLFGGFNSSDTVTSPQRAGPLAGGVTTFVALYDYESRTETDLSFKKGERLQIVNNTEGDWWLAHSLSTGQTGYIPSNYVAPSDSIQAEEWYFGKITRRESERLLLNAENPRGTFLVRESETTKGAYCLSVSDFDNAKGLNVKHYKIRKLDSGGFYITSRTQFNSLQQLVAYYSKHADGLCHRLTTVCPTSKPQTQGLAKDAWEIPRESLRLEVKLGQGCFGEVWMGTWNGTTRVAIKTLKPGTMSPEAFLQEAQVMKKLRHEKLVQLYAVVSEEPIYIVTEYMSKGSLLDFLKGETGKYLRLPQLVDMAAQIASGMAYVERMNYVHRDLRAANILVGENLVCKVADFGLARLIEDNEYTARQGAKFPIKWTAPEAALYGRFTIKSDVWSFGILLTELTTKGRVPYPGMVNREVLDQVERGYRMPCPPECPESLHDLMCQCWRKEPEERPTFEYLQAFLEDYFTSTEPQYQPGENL

The structures appear in SMILES notation.

Sequence of Vascular endothelial growth factor receptor 2 (P35968 whole entry): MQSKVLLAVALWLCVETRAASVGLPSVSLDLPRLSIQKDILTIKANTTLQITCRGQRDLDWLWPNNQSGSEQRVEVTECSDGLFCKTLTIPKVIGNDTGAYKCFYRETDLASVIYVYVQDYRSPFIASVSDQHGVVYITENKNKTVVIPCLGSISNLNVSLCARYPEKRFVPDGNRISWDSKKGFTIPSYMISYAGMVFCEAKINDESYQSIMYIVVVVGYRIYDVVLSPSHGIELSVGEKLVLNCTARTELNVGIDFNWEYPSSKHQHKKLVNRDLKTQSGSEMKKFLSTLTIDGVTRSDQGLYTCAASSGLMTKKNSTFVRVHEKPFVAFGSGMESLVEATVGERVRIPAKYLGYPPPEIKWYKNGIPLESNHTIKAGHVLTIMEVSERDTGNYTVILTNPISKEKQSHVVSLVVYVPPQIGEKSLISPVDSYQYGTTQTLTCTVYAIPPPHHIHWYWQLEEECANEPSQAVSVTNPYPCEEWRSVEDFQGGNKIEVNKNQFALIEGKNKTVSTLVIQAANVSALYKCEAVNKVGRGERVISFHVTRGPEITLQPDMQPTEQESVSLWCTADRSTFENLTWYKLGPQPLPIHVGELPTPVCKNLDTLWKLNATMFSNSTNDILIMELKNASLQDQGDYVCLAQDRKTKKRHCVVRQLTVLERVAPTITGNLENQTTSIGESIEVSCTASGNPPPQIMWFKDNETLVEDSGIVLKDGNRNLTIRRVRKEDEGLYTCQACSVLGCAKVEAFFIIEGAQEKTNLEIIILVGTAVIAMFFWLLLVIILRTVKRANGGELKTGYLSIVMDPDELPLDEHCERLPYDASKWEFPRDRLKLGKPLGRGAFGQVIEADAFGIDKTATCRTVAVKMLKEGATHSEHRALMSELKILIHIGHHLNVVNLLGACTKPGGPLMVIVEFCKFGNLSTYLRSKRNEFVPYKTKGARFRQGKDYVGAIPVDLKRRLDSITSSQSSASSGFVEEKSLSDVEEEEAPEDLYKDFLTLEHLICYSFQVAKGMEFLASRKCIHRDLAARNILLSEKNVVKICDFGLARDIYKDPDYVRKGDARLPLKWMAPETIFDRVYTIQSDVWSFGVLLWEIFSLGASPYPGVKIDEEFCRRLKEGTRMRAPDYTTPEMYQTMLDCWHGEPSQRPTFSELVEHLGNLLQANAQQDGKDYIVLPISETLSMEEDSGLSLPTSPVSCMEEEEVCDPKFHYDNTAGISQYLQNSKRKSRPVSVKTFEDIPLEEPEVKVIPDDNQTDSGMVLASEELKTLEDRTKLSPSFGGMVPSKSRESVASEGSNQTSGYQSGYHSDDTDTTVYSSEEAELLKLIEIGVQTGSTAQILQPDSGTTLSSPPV

With `CNS(=O)(=O)c1ccc2c(c1)/C(=C/c1[nH]cc3c1CCNC3=O)C(=O)N2`, inhibition in test [1] was half-maximal at 9 nM (IC50).
With `CN(C)S(=O)(=O)c1ccc2c(c1)/C(=C/c1[nH]cc3c1CCOC3=O)C(=O)N2`, the IC50 was 33 nM in test [1], over 20000 nM in test [2], over 20000 nM in test [3] and over 20000 nM in test [4].
`O=C1Nc2cccc(C3CCNCC3)c2/C1=C/c1[nH]cc2c1CCOC2=O`: the IC50 in test [1] was determined as 9 nM; in test [2], 490 nM; in test [3], 1100 nM; in test [4], 1100 nM.
For `COc1ccc2c(c1)/C(=C/c1[nH]cc3c1CCNC3=O)C(=O)N2`, it took 250 nM to reach half-maximal inhibition in test [1] (IC50).
As for `O=C1Nc2cccc(C3CCNCC3)c2/C1=C/c1[nH]cc2c1CCNC2=O`, the IC50 in test [1] came to 49 nM.
On to `O=C1Nc2ccc(Cl)cc2/C1=C/c1[nH]cc2c1CCOC2=O`, for which the IC50 in test [1] is 88 nM; in test [2], over 20000 nM; in test [3], 2100 nM; in test [4], over 20000 nM.
Regarding `COc1ccc2c(c1)/C(=C/c1[nH]cc3c1CCOC3=O)C(=O)N2`, the IC50 in test [1] was 40 nM; in test [2] it was over 20000 nM; in test [3], over 20000 nM; in test [4] it was over 20000 nM.
In test [1], `CN(C)S(=O)(=O)c1ccc2c(c1)/C(=C/c1[nH]cc3c1CCNC3=O)C(=O)N2` registered an IC50 of 68 nM.
`O=C1Nc2ccc(Br)cc2/C1=C/c1[nH]cc2c1CCNC2=O` came in with an IC50 in test [1] of 530 nM.
Consider `O=C1Nc2ccc(F)cc2/C1=C/c1[nH]cc2c1CCNC2=O`, for which the IC50 in test [1] was 300 nM.
In the case of `NS(=O)(=O)c1ccc2c(c1)/C(=C/c1[nH]cc3c1CCOC3=O)C(=O)N2`, the IC50 in test [1] was 12 nM; in test [2], 6600 nM; in test [3], over 20000 nM; in test [4], 13000 nM.
The matching figures for `CC(C)NS(=O)(=O)c1ccc2c(c1)/C(=C/c1[nH]cc3c1CCOC3=O)C(=O)N2`: 64 nM, 6700 nM, over 20000 nM and over 20000 nM.
`O=C1Nc2ccc(Br)cc2/C1=C/c1[nH]cc2c1CCOC2=O`: the IC50 in test [1] is 190 nM; in test [2], 11000 nM; in test [3] it was 18000 nM; in test [4] it was over 20000 nM.
On to `COc1ccc2c(c1)NC(=O)/C2=C\c1[nH]cc2c1CCOC2=O`, for which the IC50 was 1500 nM in test [1], over 20000 nM in test [2], 1400 nM in test [3] and over 20000 nM in test [4].
Take `O=C1Nc2cccc(CCO)c2/C1=C/c1[nH]cc2c1CCOC2=O`: the IC50 in test [1] was 30 nM; in test [2], 1200 nM; in test [3], over 20000 nM; in test [4] it was over 20000 nM.
Consider `O=C1Nc2cc(-c3ccccc3)ccc2/C1=C/c1[nH]cc2c1CCOC2=O`, for which the IC50 in test [1] was over 10000 nM; in test [2], 2000 nM; in test [3], 1100 nM; in test [4], 8400 nM.
Compound `O=C1Nc2cc(-c3ccccc3)ccc2/C1=C/c1[nH]cc2c1CCNC2=O` showed an IC50 in test [1] of 5700 nM.
In test [1], `O=C1Nc2ccc(C(=O)O)cc2/C1=C/c1[nH]cc2c1CCNC2=O` displayed an IC50 of 68 nM.
Consider `O=C1Nc2ccc(C(=O)O)cc2/C1=C/c1[nH]cc2c1CCOC2=O`, for which the IC50 was 4 nM in test [1], 6200 nM in test [2], over 20000 nM in test [3] and over 20000 nM in test [4].
In the case of `CNS(=O)(=O)c1ccc2c(c1)/C(=C/c1[nH]cc3c1CCOC3=O)C(=O)N2`, the IC50 in test [1] is 4 nM; in test [2] it was 6600 nM; in test [3] it was over 20000 nM; in test [4] it was over 20000 nM.
As for `Cc1cccc2c1/C(=C/c1[nH]cc3c1CCOC3=O)C(=O)N2`, the IC50 in test [1] was 270 nM; in test [2], over 20000 nM; in test [3] it was over 20000 nM; in test [4], over 20000 nM.
The compound `O=C1Nc2cccc(CCO)c2/C1=C/c1[nH]cc2c1CCNC2=O` displayed an IC50 in test [1] of 340 nM.
Regarding `O=C1Nc2ccc(F)cc2/C1=C/c1[nH]cc2c1CCOC2=O`, the IC50 in test [1] is 82 nM; in test [2] it was 10000 nM; in test [3], over 20000 nM; in test [4] it was over 20000 nM.

One may read the IC50 as the midpoint of a concentration-inhibition curve. Low readings indicate greater potency in that assay, high ones weaker potency in that assay.

For the origin of these results see ChEMBL document CHEMBL1136528, “Novel pyrrolyllactone and pyrrolyllactam indolinones as potent cyclin-dependent kinase 2 inhibitors” (Bioorg Med Chem Lett, 2003).
